Earlier results on one compound are cited in patent US10792293B2, “Topical nanodrug formulation” (priority 2015, dated 2020).

In the case of `CC(=O)S[C@@H]1CC2=CC(=O)CC[C@]2(C)[C@H]2CC[C@@]3(C)[C@@H](CC[C@@]34CCC(=O)O4)[C@H]12` [Spironolactone, spironolactone], the solubility in water entry was “about 2.8 mg/100 ml”.
